Test results from patent US5760036A, “Aminediol protease inhibitors” (E. R. Squibb & Sons, Inc., priority 1995, dated 1998).
Read-outs that look alike come from different tables or passages of the source.

Columns and labels:
[1] = tested on: RF strain of HIV (CEM-SS cells); assay: Cell Culture Anti-HIV Activity (cell viability, formazan); type: cell-based; settings: Human immunodeficiency virus 1, CEM-SS, 144 h, CEM-SS cells, RF strain of HIV, multiplicity of infection 0.04, 6 days at 37° C., 450 nm; read-out: HIV (CEM Cells) IC50
In short: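 CEM-SS cells (5000/well) infected with HIV RF at MOI 0.04, exposed to half-log serial compound dilutions, incubated 6 days at 37° C. Viability read by tetrazolium reduction to formazan, absorbance 450 nm. IC50 is the concentration raising formazan in infected cells to 50% of uninfected, drug-free cells.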

HIV protease = target: T1, HIV protease (Human immunodeficiency virus type 1 group M subtype B, UniProt P04585); assay: HIV Protease Assay; type: biochemical
T1 construct: and purified protease
In short: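 Purified protease cleaved 450 μM octapeptide substrate in 50 mM sodium acetate pH 5.5 with 100 μg/ml BSA for 30 minutes at 37° C; product analyzed by reverse-phase HPLC at UV220 after H3PO4 quench. Inhibitors tested at final 10 μM with 4% DMSO.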

[2] = pH 5.5, 10 μM inhibitor, 4% DMSO, 450 μM substrate, pH 5.5, 30 minutes at 37° C., RP-HPLC, read-out: HIV Protease % Inhibition at 10 μM

| HIV Protease % Inhibition at 10 μM (HIV protease; 10 μM inhibitor, 4% DMSO, 450 μM substrate, pH 5.5, 30 minutes at 37° C., RP-HPLC) [%] | inhibition at 10 µM (HIV protease; [2]) [%] | inhibition at 10 µM (HIV protease; pH 5.5, read-out: HIV Protease % Inhibition at 10 μM) [%] | Structure (SMILES) | IC50 [1] [nM] |
| --- | --- | --- | --- | --- |
| 99 | – | – | CC(C)(C)OC(=O)N[C@@H](Cc1ccccc1)[C@H](O)CNC[C@@H](O)[C@H](Cc1ccccc1)NC(=O)C1NC(=O)OC1(C)C (single isomer, unassigned; isomer b) [Compound 240, [1S-[1R*,2S*(2S*,3R*)]]-[3-[[3-[[(5,5-Dimethyl-2-oxo-4-oxazolidinyl)carbonyl]amino]-2-hydroxy-4-phenylbutyl]amino]-2-hydroxy-1-(phenylmethyl)propyl]carbamic acid, 1,1-dimethylethyl ester, isomer B] | 2000 |
| – | 97 | – | CC(C)(C)OC(=O)N[C@@H](Cc1ccccc1)[C@H](O)CNC[C@@H](O)[C@H](Cc1ccccc1)NC(=O)OC(C)(C)CC#CCc1ccccc1 [Compound 167, [1S-(1R*,2S*))]-[Iminobis[2-hydroxy-1-(phenylmethyl)-3,1-propanediyl]biscarbamic acid, 1,1-dimethylethyl 1,1]-dimethyl-5-phenyl-3-pentynyl ester] | > 1800 |
| – | 100 | – | CC(C)(C)OC(=O)N[C@@H](Cc1ccccc1)[C@H](O)CNC[C@@H](O)[C@H](Cc1ccccc1)NC(=O)[C@@H](NC(=O)OCc1cc2ncccc2o1)C(C)(C)C [Compound 323, [S-[1R*,2S*(2S*,3R*)]]-[r2,2-Dimethyl-1-[[[3-[[3-[[(1.1-dimethylethoxy)carbonyl]amino]-2-hydroxy-4-phenylbutyl]amino]-2-hydroxy-1-(phenylmethyl)propyl]amino]carbonyl]propyl]carbamic acid, (2-furo[3,2-b]pyridinyl)methyl ester] | 14 |
| – | 99 | – | CC(C)(C)OC(=O)N[C@@H](Cc1ccccc1)[C@H](O)CNC[C@@H](O)[C@H](Cc1ccc(OCCO)cc1)NC(=O)OC(C)(C)C [Compound 209, [1S-[1R*,2S*(2S*,3R*)]]-[3[[-3-[[(1,1-Dimethylethoxy)carbonyl]amino]-2-hydroxy-4-[4-(2-hydroxyethoxy)phenyl]butyl]amino]-2-hydroxy-1-(phenylmethyl)propyl]-carbamic acid, 1,1-dimethylethyl ester] | 30 |
| – | – | 100 | CC(C)(C)OC(=O)N[C@@H](Cc1ccccc1)[C@H](O)CNC[C@@H](O)[C@H](Cc1ccccc1)NC(=O)[C@](C)(O)C(C)(C)C [Compound 262, [1S-[1R*,2S*[2S*,3R*(S*)]]]-[3-[[3-[(2-Hydroxy-2,3,3-trimethyl-1-oxobutyl)amino]-2-hydroxy-4-phenylbutyl]amino]-2-hydroxy-1-(phenylmethyl)propyl]carbamic acid, 1.1-dimethylethyl ester] | 30 |
| – | 100 | – | COCCOc1ccc(C[C@H](NC(=O)OC(C)(C)CO)[C@H](O)CNC[C@@H](O)[C@H](Cc2ccccc2)NC(=O)OC(C)(C)C)cc1 [Compound 283, [1S-[1R*,2S*(2S*,3R*)]]-[3-[[3-[[(1,1-Dimethylethoxy)carbonyl]amino]-2-hydroxy-4-phenylbutyl]amino]-2-hydroxy-1-8 [4-(2-methoxyethoxy)phenyl]methyl]propyl]carbamic acid, 2-hydroxy-1,1-dimethylethyl ester] | 110 |
| – | 10 | – | CN(CC(=O)[C@H](Cc1ccccc1)NC(=O)OC(C)(C)C)C[C@@H](O)[C@H](Cc1ccccc1)NC(=O)OC(C)(C)C [Compound 197, [1S-[1R*(2S*,3R*)]]-[3-[[3-[[(1,1-Dimethylethoxy)carbonyl]-amino]-2-hydroxy-4-phenylbutyl]-methylamino]-2-oxo-1-(phenylmethyl)propyl]carbamic acid, 1,1-dimethylethyl ester] | > 10000 |
